Columns and labels:
PARP7 [1] = biological target: T1, PARP7 (Homo sapiens, UniProt Q7Z3E1); assay: Inhibition of the compound on PARP7 protein activity (ADP-ribosylation, chemiluminescence); assay type: biochemical; conditions: Histone H1 coated plate, Biotin-Labeled NAD+, 2 h at room temperature, chemiluminescence; read-out: PARP7 activity inhibition IC50
T1 construct: purchased BPS 80527
T1 sequence (Q7Z3E1 1-657): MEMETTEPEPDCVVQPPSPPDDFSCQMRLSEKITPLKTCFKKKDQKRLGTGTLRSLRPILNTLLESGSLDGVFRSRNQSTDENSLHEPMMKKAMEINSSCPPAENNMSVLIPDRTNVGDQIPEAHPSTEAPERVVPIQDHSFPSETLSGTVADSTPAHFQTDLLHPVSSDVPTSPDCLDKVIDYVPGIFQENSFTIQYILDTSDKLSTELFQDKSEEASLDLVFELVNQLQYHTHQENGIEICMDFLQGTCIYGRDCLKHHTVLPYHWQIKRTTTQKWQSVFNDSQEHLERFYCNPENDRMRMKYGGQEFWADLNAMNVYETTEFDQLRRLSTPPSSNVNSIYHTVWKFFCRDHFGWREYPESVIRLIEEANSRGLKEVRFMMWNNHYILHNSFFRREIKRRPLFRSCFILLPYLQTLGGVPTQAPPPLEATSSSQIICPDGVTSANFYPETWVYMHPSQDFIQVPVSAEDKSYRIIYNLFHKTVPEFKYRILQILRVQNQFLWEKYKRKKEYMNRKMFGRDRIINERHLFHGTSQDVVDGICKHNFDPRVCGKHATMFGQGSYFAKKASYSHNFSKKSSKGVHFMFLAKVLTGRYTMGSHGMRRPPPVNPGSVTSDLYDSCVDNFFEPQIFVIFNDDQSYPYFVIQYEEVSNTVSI

NCI-H1373 cells = assay: Inhibition on NCI-H1373 cell proliferation (Cell-Titer-Glo); assay type: cell-based; conditions: Homo sapiens, 144 h; NCI-H1373 cells, incubation for 6 days, Cell-Titer-Glo; read-out: NCI-H1373 cell proliferation inhibition IC50
PARP7 [2] = biological target: T1, PARP7; assay: PARP7 TR-FRET binding inhibition (displacement of probe RBN011147); conditions: TR-FRET, Biotin-labeled probe RBN011147; read-out: PARP7 binding inhibition IC50
Experimental: The ability of the compound to substitute the probe RBN011147 (Wigle et al., 2020, Cell Chemical Biology 27, 877-887) was tested by a TR-FRET method, and IC50 was calculated to evaluate the binding ability of the compound to PARP7. […]

PARP1 = PARP1 (Homo sapiens, UniProt P09874); assay: PARP1 in vitro enzyme activity inhibition (chemiluminescence assay); assay type: biochemical; conditions: 5 nM of PARP1 solution, method of test example 1; read-out: PARP1 activity inhibition IC50
Experimental: (§1) Following the method in test example 1, the IC50 value of the inhibition of each compound on PARP7 activity were detected and obtained. Reference was made to the method in test example 1, except that the 6.25 nM of PARP7 solution in the ribosylation reaction step was replaced with a 5 nM of PARP1 solution or a 5 nM of PARP2. Similar to the 6.25 nM of PARP7 solution, the 5 nM of PARP1 solution and 5 nM of PARP2 solution were also formulated and obtained by using 1× Assay buffer.

PARP2 = PARP2 (Homo sapiens, UniProt Q9UGN5); assay: PARP2 in vitro enzyme activity inhibition (chemiluminescence assay); assay type: biochemical; conditions: 5 nM of PARP2, method of test example 1; read-out: PARP2 activity inhibition IC50
Experimental: as §1

PARP7 [3] = biological target: T1, PARP7; assay: PARP7 in vitro enzyme activity inhibition (chemiluminescence assay, selectivity test); assay type: biochemical; conditions: 6.25 nM of PARP7 solution, method of test example 1; read-out: PARP7 activity inhibition IC50
Experimental: as §1

PARP1, sequence (P09874 whole entry, species assumed): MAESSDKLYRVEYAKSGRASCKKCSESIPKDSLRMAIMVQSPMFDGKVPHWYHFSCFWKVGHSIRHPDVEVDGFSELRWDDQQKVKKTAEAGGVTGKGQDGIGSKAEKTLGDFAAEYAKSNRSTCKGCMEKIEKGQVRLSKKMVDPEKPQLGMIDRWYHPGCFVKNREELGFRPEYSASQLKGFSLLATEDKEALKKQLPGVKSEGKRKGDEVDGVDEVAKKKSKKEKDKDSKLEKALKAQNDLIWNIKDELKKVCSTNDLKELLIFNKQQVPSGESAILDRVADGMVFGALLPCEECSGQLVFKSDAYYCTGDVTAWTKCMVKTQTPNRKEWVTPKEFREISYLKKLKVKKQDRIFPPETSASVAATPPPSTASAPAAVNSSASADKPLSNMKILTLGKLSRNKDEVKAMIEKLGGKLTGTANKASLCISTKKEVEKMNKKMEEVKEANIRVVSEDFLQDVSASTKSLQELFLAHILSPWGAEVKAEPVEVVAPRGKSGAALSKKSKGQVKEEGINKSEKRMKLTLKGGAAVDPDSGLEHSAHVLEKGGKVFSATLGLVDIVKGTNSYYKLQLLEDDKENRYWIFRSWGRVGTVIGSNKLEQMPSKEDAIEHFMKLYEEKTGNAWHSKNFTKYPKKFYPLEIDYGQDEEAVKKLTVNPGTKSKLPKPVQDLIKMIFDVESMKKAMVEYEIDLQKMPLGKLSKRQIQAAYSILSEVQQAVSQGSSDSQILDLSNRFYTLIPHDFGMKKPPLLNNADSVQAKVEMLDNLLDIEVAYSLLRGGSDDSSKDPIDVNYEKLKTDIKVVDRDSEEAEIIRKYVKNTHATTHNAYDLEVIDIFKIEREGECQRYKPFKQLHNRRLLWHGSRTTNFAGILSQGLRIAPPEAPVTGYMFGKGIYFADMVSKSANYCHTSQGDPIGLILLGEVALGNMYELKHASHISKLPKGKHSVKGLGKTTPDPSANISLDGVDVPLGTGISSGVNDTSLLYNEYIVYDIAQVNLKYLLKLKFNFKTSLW
PARP2, sequence (Q9UGN5 whole entry, species assumed): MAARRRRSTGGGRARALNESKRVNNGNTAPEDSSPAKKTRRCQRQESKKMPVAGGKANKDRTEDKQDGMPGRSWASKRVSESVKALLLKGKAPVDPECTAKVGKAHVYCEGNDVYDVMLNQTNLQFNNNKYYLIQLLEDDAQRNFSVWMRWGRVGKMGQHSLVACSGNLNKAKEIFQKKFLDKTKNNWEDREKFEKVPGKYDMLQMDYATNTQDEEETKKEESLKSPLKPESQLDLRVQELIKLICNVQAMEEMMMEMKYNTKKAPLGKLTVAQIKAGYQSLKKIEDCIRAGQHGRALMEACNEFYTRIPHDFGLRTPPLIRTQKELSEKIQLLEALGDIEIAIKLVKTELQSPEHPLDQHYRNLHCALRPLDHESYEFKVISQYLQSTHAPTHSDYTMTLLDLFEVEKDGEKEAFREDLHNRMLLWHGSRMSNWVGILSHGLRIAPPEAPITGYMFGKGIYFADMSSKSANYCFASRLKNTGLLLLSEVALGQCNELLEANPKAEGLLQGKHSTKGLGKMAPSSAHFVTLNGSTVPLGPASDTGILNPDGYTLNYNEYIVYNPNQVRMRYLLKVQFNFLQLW

Structure (SMILES) | IC50 (PARP7 [1]) [nM] | IC50 (NCI-H1373 cells) [nM] | IC50 (PARP7 [2]) [nM] | IC50 (PARP1) [nM] | IC50 (PARP2) [nM] | IC50 (PARP7 [3]) [nM]
CC1(C)CN(C(=O)C(CCCNC(=O)c2cnc(-c3ncc(C(F)(F)F)cn3)cn2)Nc2cn[nH]c(=O)c2C(F)(F)F)C1 (stereo not drawn) [Example 174] | 3 to 10 | > 3000 | 10 to 30 | 30 to 100 | 3 to 10 | 3 to 10
O=C(NCCC[C@@H](Nc1cn[nH]c(=O)c1C(F)(F)F)C(=O)N1CC[C@@H](F)C1)c1ccc(-c2ncc(C(F)(F)F)s2)cc1 [Example 222] | < 3 | < 300 | < 10 | 10 to 30 | < 3 | < 3
O=C(NCCC[C@@H](Nc1cn[nH]c(=O)c1C(F)(F)F)C(=O)N1CC(Cl)C1)c1ccc(-c2ncc(C(F)(F)F)s2)cc1 [Example 224] | < 3 | < 300 | < 10 | 3 to 10 | 10 to 30 | < 3
CNC(=O)[C@@H](CCCNC(=O)c1ccc(-c2ncc(C(F)(F)F)s2)cc1)Nc1cn[nH]c(=O)c1C(F)(F)F [Example 229] | < 3 | < 300 | 10 to 30 | 30 to 100 | 10 to 30 | < 3
CN(C(=O)[C@@H](CCCNC(=O)c1ccc(-c2ncc(C(F)(F)F)s2)cc1)Nc1cn[nH]c(=O)c1C(F)(F)F)C1CCC1 [Example 230] | 3 to 10 | < 300 | 30 to 100 | 30 to 100 | 3 to 10 | 3 to 10
C[C@H]1CCN(C(=O)[C@@H](CCCNC(=O)c2ccc(-c3ncc(C(F)(F)F)s3)cc2)Nc2cn[nH]c(=O)c2C(F)(F)F)C1 [Example 232] | < 3 | 300 to 1000 | 10 to 30 | 3 to 10 | 3 to 10 | < 3
CC1CN(C(=O)[C@@H](CCCNC(=O)c2ccc(-c3ncc(C(F)(F)F)s3)cc2)Nc2cn[nH]c(=O)c2C(F)(F)F)C1 [Example 233] | < 3 | 300 to 1000 | < 10 | 3 to 10 | < 3 | < 3
C[C@@H]1COCCN1C(=O)[C@@H](CCCNC(=O)c1ccc(-c2ncc(C(F)(F)F)s2)cc1)Nc1cn[nH]c(=O)c1C(F)(F)F [Example 238] | < 3 | 300 to 1000 | < 10 | 30 to 100 | 10 to 30 | < 3
N#C[C@@H]1CCN(C(=O)[C@@H](CCCNC(=O)c2ccc(-c3ncc(C(F)(F)F)s3)cc2)Nc2cn[nH]c(=O)c2C(F)(F)F)C1 [Example 239] | < 3 | 300 to 1000 | 10 to 30 | 10 to 30 | > 100 | < 3
CC1(F)CN(C(=O)[C@@H](CCCNC(=O)c2ccc(-c3ncc(C(F)(F)F)s3)cc2)Nc2cn[nH]c(=O)c2C(F)(F)F)C1 [Example 242] | 3 to 10 | 1000 to 3000 | 10 to 30 | 30 to 100 | 3 to 10 | 3 to 10
N#CC1CCN(C(=O)[C@@H](CCCNC(=O)c2ccc(-c3ncc(C(F)(F)F)s3)cc2)Nc2cn[nH]c(=O)c2C(F)(F)F)CC1 [Example 243] | < 3 | > 3000 | < 10 | 3 to 10 | 3 to 10 | < 3
COC1(C)CN(C(=O)[C@@H](CCCNC(=O)c2ccc(-c3ncc(C(F)(F)F)s3)cc2)Nc2cn[nH]c(=O)c2C(F)(F)F)C1 [Example 246] | < 3 | 1000 to 3000 | < 10 | 10 to 30 | 3 to 10 | < 3
CC1(C#N)CN(C(=O)[C@@H](CCCNC(=O)c2ccc(-c3ncc(C(F)(F)F)s3)cc2)Nc2cn[nH]c(=O)c2C(F)(F)F)C1 [Example 247] | 3 to 10 | > 3000 | 10 to 30 | 10 to 30 | 30 to 100 | 3 to 10

Second part, the compound after the results:

IC50 (PARP7 [1]) [nM] | IC50 (NCI-H1373 cells) [nM] | IC50 (PARP7 [2]) [nM] | IC50 (PARP1) [nM] | IC50 (PARP2) [nM] | IC50 (PARP7 [3]) [nM] | Structure (SMILES)
< 3 | < 300 | < 10 | > 100 | 3 to 10 | < 3 | CC(C)(C)NC(=O)[C@@H](CCCNC(=O)c1ccc(-c2ncc(C(F)(F)F)s2)cc1)Nc1cn[nH]c(=O)c1C(F)(F)F [Example 221]
3 to 10 | < 300 | < 10 | 3 to 10 | 30 to 100 | 3 to 10 | CN(C(=O)[C@@H](CCCNC(=O)c1ccc(-c2ncc(C(F)(F)F)s2)cc1)Nc1cn[nH]c(=O)c1C(F)(F)F)C1CC1 [Example 223]
3 to 10 | < 300 | < 10 | > 100 | 3 to 10 | 3 to 10 | O=C(NCCC[C@@H](Nc1cn[nH]c(=O)c1C(F)(F)F)C(=O)NC1CCC1)c1ccc(-c2ncc(C(F)(F)F)s2)cc1 [Example 228]
< 3 | < 300 | < 10 | 10 to 30 | 3 to 10 | < 3 | CCNC(=O)C(CCCNC(=O)c1ccc(-c2ncc(C(F)(F)F)s2)cc1)Nc1cn[nH]c(=O)c1C(F)(F)F (stereo not drawn) [Example 231]
< 3 | 300 to 1000 | < 10 | 3 to 10 | 3 to 10 | < 3 | O=C(NCCCC(Nc1cn[nH]c(=O)c1C(F)(F)F)C(=O)NC1CCCOC1)c1ccc(-c2ncc(C(F)(F)F)s2)cc1 (stereo not drawn) [Example 235]
< 3 | 300 to 1000 | < 10 | 10 to 30 | 3 to 10 | < 3 | CO[C@H]1CCN(C(=O)[C@@H](CCCNC(=O)c2ccc(-c3ncc(C(F)(F)F)s3)cc2)Nc2cn[nH]c(=O)c2C(F)(F)F)C1 [Example 237]
< 3 | 1000 to 3000 | 10 to 30 | 10 to 30 | 3 to 10 | < 3 | O=C(NCCC[C@@H](Nc1cn[nH]c(=O)c1C(F)(F)F)C(=O)N1CC[C@H](F)C1)c1ccc(-c2ncc(C(F)(F)F)s2)cc1 [Example 241]
< 3 | > 3000 | 30 to 100 | 3 to 10 | 30 to 100 | < 3 | O=C(NCCC[C@@H](Nc1cn[nH]c(=O)c1C(F)(F)F)C(=O)Nc1ccccn1)c1ccc(-c2ncc(C(F)(F)F)s2)cc1 [Example 244]

Source: patent EP4800012A1, “COMPOUND ACTING AS PARP7 INHIBITOR” (Dovetree Medicines Unus, Inc., priority 2023, dated 2025)
